Experimental data as given in ChEMBL document CHEMBL4673281, “Influenza antiviral activity of F- and OH-containing isopulegol-derived octahydro-2H-chromenes” (Bioorg Med Chem Lett, 2021).
Calls of active or inactive are those of the source. No cut-off for these calls is given here.

Legend:
Influenza A virus [1] = test: Antiviral activity against Influenza A virus (A/Puerto Rico/8/34 (H1N1) infected in MDCK cells assessed as decrease in viral titer preincubated for 1 hr followed by viral infection and cultivated for 48 hrs followed by supernatant transferred to chicken erythrocyte for 1 hr followed by measuring ability to cause positive hemagglutination; format: functional, organism-based; conditions: A/Puerto Rico/8/1934(H1N1)
[2] = Selectivity index, ratio of CC50 for MDCK cells to IC50 for Influenza A virus (A/Puerto Rico/8/34 (H1N1)) infected in MDCK cells; format: toxicity, cell-based; conditions: dog, read-out: Ratio CC50/IC50
[3] = Cytotoxicity against MDCK cells assessed as cell death incubated for 48 hrs by MTT assay; format: cell-based, Canis lupus familiaris; conditions: dog
Influenza A virus [4] = test: Antiviral activity against Influenza A virus (A/Puerto Rico/8/34(H1N1)) pdm09 infected in MDCK cells assessed as inhibition of virus infection at early stage by time of addition experiment; format: functional, organism-based; conditions: A/Puerto Rico/8/1934(H1N1)
[5] = system: Influenza A virus (A/Puerto Rico/8/1934(H1N1)); test: Inhibition of Hemagglutinin in Influenza A virus (A/Puerto Rico/8/34(H1N1)); conditions: dose 0-300 µg/ml

Row | SMILES | IC50 (Influenza A virus [1]) [µM] | selectivity ratio [2] | CC50 at 48 h [3] [µM] | Activity (Influenza A virus [4]) | inhibition [5]
1 | C[C@@H]1CC[C@@H]2[C@@H](C1)O[C@@H](c1ccc(Br)cc1)CC2(C)F (some centres undefined) | 391 | 2 | > 882 | – | –
2 | COc1cc(OC)c([C@H]2CC(C)(O)[C@@H]3CC[C@@H](C)C[C@H]3O2)c(OC)c1 (some centres undefined) | 19 | 45 | 856 | Active | Dose-dependent effect
3 | COc1ccc([C@H]2CC(C)(F)[C@@H]3CC[C@@H](C)C[C@H]3O2)cc1 (some centres undefined) | > 103 | 2 | 171 | – | –
4 | COc1cc(OC)c([C@H]2CC(C)(F)[C@@H]3CC[C@@H](C)C[C@H]3O2)cc1OC (some centres undefined) | 6 | 13 | 78 | – | –
5 | COc1cc([C@H]2CC(C)(F)[C@@H]3CC[C@@H](C)C[C@H]3O2)ccc1O (some centres undefined) | > 324 | 2 | 642 | – | –
6 | COc1ccc([C@H]2CC(C)(O)[C@@H]3CC[C@@H](C)C[C@H]3O2)cc1OC (some centres undefined) | 344 | 3 | > 937 | – | –
7 | C[C@@H]1CC[C@@H]2[C@@H](C1)O[C@@H](c1ccc(Br)cc1)CC2(C)O (some centres undefined) | > 89 | 1 | 132 | – | –
8 | COc1cccc([C@H]2CC(C)(F)[C@@H]3CC[C@@H](C)C[C@H]3O2)c1OC (some centres undefined) | 43 | 4 | 180 | – | –
9 | COc1ccc(OC)c([C@H]2CC(C)(F)[C@@H]3CC[C@@H](C)C[C@H]3O2)c1 (some centres undefined) | > 31 | 1 | 37 | – | –
10 | C[C@@H]1CC[C@@H]2[C@@H](C1)O[C@@H](c1ccc([N+](=O)[O-])cc1)CC2(C)F (some centres undefined) | > 976 | 1 | > 976 | – | –
11 | COc1ccc([C@H]2CC(C)(F)[C@@H]3CC[C@@H](C)C[C@H]3O2)c(OC)c1OC (some centres undefined) | 6 | 22 | 133 | – | –
12 | C[C@@H]1CC[C@@H]2[C@@H](C1)O[C@@H](c1ccccc1)CC2(C)O (some centres undefined) | 100 | 6 | 580 | – | –
13 | COc1ccc([C@H]2CC(C)(O)[C@@H]3CC[C@@H](C)C[C@H]3O2)cc1O (some centres undefined) | 118 | 6 | 738 | – | –
14 | C[C@@H]1CC[C@@H]2[C@@H](C1)O[C@@H](c1ccc(F)cc1)CC2(C)F (some centres undefined) | > 36 | 2 | 68 | – | –
15 | COc1ccc(OC)c([C@H]2CC(C)(O)[C@@H]3CC[C@@H](C)C[C@H]3O2)c1 (some centres undefined) | > 312 | 2 | 512 | – | –
16 | COc1cc([C@H]2CC(C)(F)[C@@H]3CC[C@@H](C)C[C@H]3O2)cc(OC)c1OC (some centres undefined) | 199 | 3 | 568 | – | –
17 | COc1ccc([C@H]2CC(C)(F)[C@@H]3CC[C@@H](C)C[C@H]3O2)cc1O (some centres undefined) | > 32 | 4 | 136 | – | –
18 | C[C@@H]1CC[C@@H]2[C@@H](C1)O[C@@H](c1ccc([N+](=O)[O-])cc1)CC2(C)O (some centres undefined) | 393 | 3 | > 982 | – | –
19 | C[C@@H]1CC[C@@H]2[C@@H](C1)O[C@@H](c1ccccc1)CC2(C)F (some centres undefined) | > 38 | 2 | 65 | – | –
20 | COc1cc([C@H]2CC(C)(O)[C@@H]3CC[C@@H](C)C[C@H]3O2)cc(OC)c1O (some centres undefined) | 235 | 2 | 473 | – | –

Row | SMILES | IC50 (Influenza A virus [1]) [µM] | selectivity ratio [2] | CC50 at 48 h [3] [µM] | Activity (Influenza A virus [4]) | inhibition [5]
21 | C[C@@H]1CC[C@@H]2[C@@H](C1)O[C@@H](c1ccc(Cl)cc1)CC2(C)O (some centres undefined) | > 37 | 2 | 62 | – | –
22 | C[C@@H]1CC[C@@H]2[C@@H](C1)O[C@@H](c1ccc(O)cc1)CC2(C)F (some centres undefined) | > 36 | 3 | 95 | – | –
23 | COc1ccc([C@H]2CC(C)(F)[C@@H]3CC[C@@H](C)C[C@H]3O2)cc1OC (some centres undefined) | > 9 | 2 | 20 | – | –
24 | CC(N)C12CC3CC(CC(C3)C1)C2 (centres undefined) [RIMANTADINE] | 69 | 5 | 326 | – | –
25 | COc1cc([C@H]2CC(C)(O)[C@@H]3CC[C@@H](C)C[C@H]3O2)ccc1O (some centres undefined) | > 327 | 1 | 411 | – | –
26 | COc1cc([C@H]2CC(C)(F)[C@@H]3CC[C@@H](C)C[C@H]3O2)cc(OC)c1O (some centres undefined) | 59 | 3 | 158 | – | –
27 | C[C@@H]1CC[C@@H]2[C@@H](C1)O[C@@H](c1ccc(F)cc1)CC2(C)O (some centres undefined) | > 36 | 2 | 65 | – | –
28 | C[C@@H]1CC[C@@H]2[C@@H](C1)O[C@@H](c1ccccc1O)CC2(C)F (some centres undefined) | > 36 | 1 | 44 | – | –
29 | COc1cc(OC)c([C@H]2CC(C)(F)[C@@H]3CC[C@@H](C)C[C@H]3O2)c(OC)c1 (some centres undefined) | 24 | 35 | 851 | Active | Dose-dependent effect
30 | C[C@@H]1CC[C@@H]2[C@@H](C1)O[C@@H](c1ccc(O)cc1)CC2(C)O (some centres undefined) | 87 | 1 | 127 | – | –
31 | COc1cccc([C@H]2CC(C)(O)[C@@H]3CC[C@@H](C)C[C@H]3O2)c1OC (some centres undefined) | > 937 | 1 | > 937 | – | –
32 | COc1cc(OC)c([C@H]2CC(C)(O)[C@@H]3CC[C@@H](C)C[C@H]3O2)cc1OC (some centres undefined) | > 857 | 1 | > 857 | – | –
33 | COc1ccc([C@H]2CC(C)(O)[C@@H]3CC[C@@H](C)C[C@H]3O2)c(OC)c1OC (some centres undefined) | 717 | 1 | > 857 | – | –
34 | COc1ccc([C@H]2CC(C)(F)[C@@H]3CC[C@@H](C)C[C@H]3O2)c(OC)c1 (some centres undefined) | 155 | 2 | 379 | – | –
35 | COc1ccc([C@H]2CC(C)(O)[C@@H]3CC[C@@H](C)C[C@H]3O2)c(OC)c1 (some centres undefined) | 78 | 12 | > 937 | – | –
36 | NC(=O)c1ncn([C@@H]2O[C@H](CO)[C@@H](O)[C@H]2O)n1 [RIBAVIRIN] | 35 | 61 | > 2130 | – | –
37 | COc1cc([C@H]2CC(C)(O)[C@@H]3CC[C@@H](C)C[C@H]3O2)cc(OC)c1OC (some centres undefined) | > 285 | 1 | 405 | – | –
38 | COc1ccc([C@H]2CC(C)(O)[C@@H]3CC[C@@H](C)C[C@H]3O2)cc1 (some centres undefined) | 29 | 24 | 689 | – | –
39 | C[C@@H]1CC[C@@H]2[C@@H](C1)O[C@@H](c1ccccc1O)CC2(C)O (some centres undefined) | > 1090 | 1 | > 1090 | – | –
40 | C[C@@H]1CC[C@@H]2[C@@H](C1)O[C@@H](c1ccc(Cl)cc1)CC2(C)F (some centres undefined) | 29 | 2 | 57 | – | –
